Here are results for 8 molecules from patent US10457891B2, “Organic compounds” (Givaudan, S.A., priority 2013, dated 2019).

Where two headings read alike, the source gives them in different places.

In series [1] the test system is hepatocytes from male rats (Sprague Dawley). Nature of the series: In vitro metabolism study in rat hepatocytes in suspension, GC-MS. Particulars: for Residual concentration: male, Sprague Dawley, rat, 4 h, 100 μM. The procedure: In order to study in vitro metabolism in rat hepatocytes, Lilial™ and compounds of the present invention may be incubated in the presence of rat hepatocytes in suspension. Reduction in the concentration of Lilial™ and the compounds of the present invention and formation of any of the corresponding benzoic acid derivatives may be analysed by GC-MS.
Cryopreserved hepatocytes from male rats (Sprague Dawley; Lifetechnologies) were defrozen, washed in Cyropreserved Hepatocytes Recovery Medium (CHRM; Lifetechnologies) and suspended in Williams E Medium (WEM; Lifetechnologies). Lilial™, or the compounds of the present invention (final concentration: 100 μM) were added to the cells (1×10^6 viable cells/ml) and suspensions were incubated up to 4 hours at 37° C. on a shaker in duplicate. Metabolism of testosterone was monitored as positive control. Decrease of the test compounds and formation of the corresponding benzoic acid derivative was determined by GC-MS analysis of methyl esters formed after derivatisation with trimethylsilyl diazomethane (Sigma-Aldrich) in methanol. The test compounds react with diazomethane yielding a methyl ketone which was used for the quantification of Lilial™ and the compound of formula (I). Metabolism was stopped with ice cold 1 M HCl, samples were extracted with tert-butyl methyl ether (MTBE) and analysed by GC-MS. Incubations containing testosterone as control were also stopped with ice cold 1 M HCl, centrifuged to separate the cells, filtrated and the decrease of testosterone analysed by LC-MS.

The test system of another series is primates. Particulars: cited from earlier work.
For series [2], the system named is reproductive organs of male rats. Particulars: rat, in vivo; cited from earlier work.
Series [3] concerns reproductive organs of dogs. Particulars: dog, in vivo; cited from earlier work.
Another series deals with mice. The conditions noted are these: mouse, in vivo; cited from earlier work.
A further series relates to guinea-pigs. Particulars: guinea pig, in vivo; cited from earlier work.

In turn, `Cc1cc(CCCC(C)C)ccc1CCC=O` had a Residual concentration in series [1] of 0 µM.
The same measure, in the same setting: in the case of `Cc1cc(CCC(C)C)ccc1CCC=O` it was 0 µM; in that of `Cc1cc(CC(C)C)cc(C)c1CCC=O`, 0 µM; in that of `Cc1ccc(CC(C)C)cc1CC(C)C=O` (centres unmarked), 0 µM.
On the same count and under the same terms, in the case of `Cc1ccc(CCCC(C)C)cc1CCC=O` it was 2.4 µM.
For the molecule `C[C@]12CC[C@H]3[C@@H](CCC4=CC(=O)CC[C@@]43C)[C@@H]1CC[C@@H]2O` [testosterone], the “Decrease / metabolism of compound in rat hepatocytes” value in series [1] (rat hepatocytes, up to 4 hours at 37° C.) is “rapid decrease”.
In turn, `Cc1cc(CC(C)C)ccc1CCC=O` displayed a Residual concentration in series [1] of 0 µM.
`CC(C=O)Cc1ccc(C(C)(C)C)cc1` (centres unmarked) [Lilial™, 3-(4-tert-butylphenyl)-2-methylpropanal]: in series [1], the “Decrease / metabolism of compound in rat hepatocytes” value is listed as “metabolised rapidly”. Also, the Residual concentration in series [1] was 0 µM. Further, the Toxic effects result in the series with primates, in the series with mice and in the series on guinea-pigs was “No effects” throughout. Further, the “Toxic effects on reproductive organs” value in series [2] and in series [3] was “toxic effects on the reproductive organs” each time.
